Experiments:
[1] = test system: lethal endotoxin shock; assay: Survival of Swiss Webster mice following lethal endotoxin dose and Tβ4; format: in vivo
Method: Swiss-Webster mice 4-6 weeks of age (20-25g) were housed 6 per cage. The mice were divided into 2 groups: endotoxic mice (endotoxin 60 mg/kg i.p. in acute treatment) and endotoxic mice treated with Tβ4, 5 minutes and 2, 4, 6, 8, 10, 12, 14, 16, 18, 20, 22, 24 hours post administration of the endotoxin. Survival was recorded 2 times a day for 7 days.
Swiss-Webster mice 4-6 weeks of age (20-25g) were divided to the following 4 groups.
1. Mice treated with a lethal dose of endotoxin (60 mg/kg).
2. Mice treated with 60 mg/kg endotoxin followed by an injection of 100 μg Tβ4 (5 minutes post administration of endotoxin).
3. Mice treated with 60 mg/kg endotoxin followed by 2 injections of 100 μg/Tβ4 (immediately following and 2 hours post administration of endotoxin).
4. […]

[2] = test system: IL-1α; assay: IL-1α serum levels after lethal endotoxin dose; format: in vivo, Swiss-Webster mice
Excerpt: (§1) Using the same methods and materials as in examples 1-3, the effect which Tβ4 has on blood levels of IL-1α, TNF-α, PAG, Txβ2 and 6-keto-PGF1 α, which are pathological mediators of endotoxin induced lethality, was studied.

[3] = test system: PAF; assay: PAF blood levels (plasma, serum) after lethal endotoxin dose; format: in vivo, Swiss-Webster mice; details: after a lethal dose of endotoxin
Excerpt: as §1

[4] = test system: Txβ2; assay: Txβ2 plasma levels after lethal endotoxin dose; format: in vivo, Swiss-Webster mice
Excerpt: as §1

[5] = test system: 6-keto-PGF1α; assay: 6-keto-PGF1α plasma levels after lethal endotoxin dose; format: in vivo, Swiss-Webster mice; details: after a lethal dose of endotoxin
Excerpt: as §1

[6] = test system: TNF-α; assay: TNF-α serum levels after lethal endotoxin dose; format: in vivo, Swiss-Webster mice
Excerpt: as §1

[7] = after a lethal dose of endotoxin
[8] = endotoxin 60 mg/kg + Tβ4 100 μg administered simultaneously, 1 hr
[9] = endotoxin 60 mg/kg + Tβ4 100 μg administered simultaneously, 3 hr

In the case of Thymosin β4 [Tβ4], the “activity on endotoxin lethality” value ([1]; 10 μg Tβ4) is reported as “sometimes shown positive activity”, the “protection against lethal endotoxin shock” value ([1]; Example 1, endotoxin 60 mg/kg i.p.) is reported as “protected against lethal endotoxin shock” and the survival rate ([1]; Example 1, endotoxin 60 mg/kg i.p., Tβ4 5 minutes and 2 to 24 hours post endotoxin, survival recorded for 7 days) is reported as no more than 100%. For the same substance, the survival rate ([1]; Example 2, endotoxin 60 mg/kg, Tβ4 administered 3 times post endotoxin) was 100%, the “Survival (No. mice alive)” value ([1]; Table I, endotoxin 60 mg/kg + Tβ4 100 μg 1x (5 min post endotoxin), 24 hrs, 7 mice at 0 hrs) was 4 and the “Survival (No. mice alive)” value ([1]; Table I, endotoxin 60 mg/kg + Tβ4 100 μg 2x (immediately and 2 hours post endotoxin), 24 hrs, 7 mice at 0 hrs) was 4. The “Survival (No. mice alive)” value ([1]; Table I, endotoxin 60 mg/kg + Tβ4 100 μg 3x (immediately, 2 and 4 hours post endotoxin), 24 hrs, 7 mice at 0 hrs) was 7, the “Survival (No. mice alive)” value ([1]; Table II, Tβ4 10 μg 3x immediately following, 2 and 4 hrs after endotoxin, 48 hrs, 8 mice at 0 hrs) was 6 and the “Survival (No. mice alive)” value ([1]; Table II, Tβ4 10 μg 3x immediately following, 2 and 4 hrs after endotoxin, 72 hrs, 8 mice at 0 hrs) was 6. For the same substance, the “Survival (No. mice alive)” value ([1]; Table II, Tβ4 10 μg 3x immediately following, 2 and 4 hrs after endotoxin, 96 hrs, 8 mice at 0 hrs) was 6, the “Survival (No. mice alive)” value ([1]; Table II, Tβ4 10 μg 3x immediately following, 2 and 4 hrs after endotoxin, 120 hrs, 8 mice at 0 hrs) was 6 and the “Survival (No. mice alive)” value ([1]; Table II, Tβ4 100 μg 3x at 2, 4 and 6 hrs after endotoxin, 48 hrs, 8 mice at 0 hrs) was 4. The “Survival (No. mice alive)” value ([1]; Table II, Tβ4 100 μg 3x at 2, 4 and 6 hrs after endotoxin, 72 hrs, 8 mice at 0 hrs) was 4, the “Survival (No. mice alive)” value ([1]; Table II, Tβ4 100 μg 3x at 2, 4 and 6 hrs after endotoxin, 96 hrs, 8 mice at 0 hrs) was 4 and the “Survival (No. mice alive)” value ([1]; Table II, Tβ4 100 μg 3x at 2, 4 and 6 hrs after endotoxin, 120 hrs, 8 mice at 0 hrs) was 4. For the same substance, the “Survival (No. mice alive)” value ([1]; Table II, Tβ4 100 μg 3x immediately following, 2 and 4 hrs after endotoxin, 48 hrs, 8 mice at 0 hrs) was 8, the “Survival (No. mice alive)” value ([1]; Table II, Tβ4 100 μg 3x immediately following, 2 and 4 hrs after endotoxin, 72 hrs, 8 mice at 0 hrs) was 8 and the “Survival (No. mice alive)” value ([1]; Table II, Tβ4 100 μg 3x immediately following, 2 and 4 hrs after endotoxin, 96 hrs, 8 mice at 0 hrs) was 8. For the same substance, the “Survival (No. mice alive)” value ([1]; Table II, Tβ4 100 μg 3x immediately following, 2 and 4 hrs after endotoxin, 120 hrs, 8 mice at 0 hrs) was 8, the “Survival (No. mice alive)” value ([1]; Table II, endotoxin 60 mg/kg + Tβ4 10 μg 3x immediately following, 2 and 4 hrs after endotoxin, 24 hrs, 8 mice at 0 hrs) was 8 and the “Survival (No. mice alive)” value ([1]; Table II, endotoxin 60 mg/kg + Tβ4 100 μg 3x at 2, 4 and 6 hrs after endotoxin, 24 hrs, 8 mice at 0 hrs) was 7. For the same substance, the “Survival (No. mice alive)” value ([1]; Table II, endotoxin 60 mg/kg + Tβ4 100 μg 3x immediately following, 2 and 4 hrs after endotoxin, 24 hrs, 8 mice at 0 hrs) was 8, the “Survival (No. mice alive)” value ([1]; Table III, Tβ4 10 μg 3x i.p., 48 hrs, 10 mice at 0 hrs) was 3 and the “Survival (No. mice alive)” value ([1]; Table III, Tβ4 10 μg 3x i.p., 72 hrs, 10 mice at 0 hrs) was 3. For the same substance, the “Survival (No. mice alive)” value ([1]; Table III, Tβ4 10 μg 3x i.p., 96 hrs, 10 mice at 0 hrs) was 3, the “Survival (No. mice alive)” value ([1]; Table III, Tβ4 10 μg 3x i.p., 5 days, 10 mice at 0 hrs) was 3 and the “Survival (No. mice alive)” value ([1]; Table III, Tβ4 10 μg 3x i.p., 6 days, 10 mice at 0 hrs) was 3. For the same substance, the “Survival (No. mice alive)” value ([1]; Table III, Tβ4 20 μg 3x i.p., 48 hrs, 10 mice at 0 hrs) was 4, the “Survival (No. mice alive)” value ([1]; Table III, Tβ4 20 μg 3x i.p., 72 hrs, 10 mice at 0 hrs) was 4 and the “Survival (No. mice alive)” value ([1]; Table III, Tβ4 20 μg 3x i.p., 96 hrs, 10 mice at 0 hrs) was 3. The “Survival (No. mice alive)” value ([1]; Table III, Tβ4 20 μg 3x i.p., 5 days, 10 mice at 0 hrs) was 3, the “Survival (No. mice alive)” value ([1]; Table III, Tβ4 20 μg 3x i.p., 6 days, 10 mice at 0 hrs) was 3 and the “Survival (No. mice alive)” value ([1]; Table III, Tβ4 50 μg 3x i.p., 48 hrs, 10 mice at 0 hrs) was 7. For the same substance, the “Survival (No. mice alive)” value ([1]; Table III, Tβ4 50 μg 3x i.p., 72 hrs, 10 mice at 0 hrs) was 7, the “Survival (No. mice alive)” value ([1]; Table III, Tβ4 50 μg 3x i.p., 96 hrs, 10 mice at 0 hrs) was 7 and the “Survival (No. mice alive)” value ([1]; Table III, Tβ4 50 μg 3x i.p., 5 days, 10 mice at 0 hrs) was 7. For the same substance, the “Survival (No. mice alive)” value ([1]; Table III, Tβ4 50 μg 3x i.p., 6 days, 10 mice at 0 hrs) was 7, the “Survival (No. mice alive)” value ([1]; Table III, endotoxin 60 mg/kg + Tβ4 10 μg 3x i.p. immediately following, 2 and 4 hrs after endotoxin, 24 hrs, 10 mice at 0 hrs) was 3 and the “Survival (No. mice alive)” value ([1]; Table III, endotoxin 60 mg/kg + Tβ4 20 μg 3x i.p. immediately following, 2 and 4 hrs after endotoxin, 24 hrs, 10 mice at 0 hrs) was 5. The “Survival (No. mice alive)” value ([1]; Table III, endotoxin 60 mg/kg + Tβ4 50 μg 3x i.p. immediately following, 2 and 4 hrs after endotoxin, 24 hrs, 10 mice at 0 hrs) was 9, the “survival of mice treated with endotoxin” value ([1]; Tβ4 20 μg administered three times) was “partially increased the survival” and the “survival of mice treated with endotoxin” value ([1]; Tβ4 50 μg administered three times) was “partially increased the survival”. For the same substance, the “effect on endotoxin toxicity” value ([1]; Tβ4 given immediately following, 2 and 4 hours after endotoxin treatment) was “protective effect”, the IL-1α (serum levels) [2, 7] was “decreased” and the “IL-1α (serum levels)” value [2, 8] was 147,5 ± 15,1 pg/ml. For the same substance, the “IL-1α (serum levels)” value [2, 9] was 207,5 ± 19,3 pg/ml, the PAF plasma levels [3] was “decreased” and the Txβ2 (plasma levels) [4, 7] was “decreased”. The “Txβ2 (plasma levels)” value ([4]; endotoxin 60 mg/kg + Tβ4 100 μg administered simultaneously, 0.5 hr) was 209 ± 9,5 pg/ml, the “Txβ2 (plasma levels)” value [4, 8] was 607 ± 53 pg/mL and the “Txβ2 (plasma levels)” value ([4]; endotoxin 60 mg/kg + Tβ4 100 μg administered simultaneously, 2 hr) was 196 ± 18 pg/mL. The “Txβ2 (plasma levels)” value [4, 9] was 112 ± 9 pg/mL, the “6-keto-PGF1 α plasma levels” value [5] was “decreased” and the TNF-α (serum levels) [6, 7] was “decreased”. For the same substance, the “TNF-α (serum levels)” value ([6]; endotoxin 60 mg/kg + Tβ4 100 μg administered immediately after endotoxin, 1 hr) was 807 pg/mL, the “TNF-α (serum levels)” value ([6]; endotoxin 60 mg/kg + Tβ4 100 μg administered immediately after endotoxin, 3 hr) was 591 pg/mL and the “TNF-α (serum levels)” value ([6]; endotoxin 60 mg/kg + Tβ4 100 μg administered immediately after endotoxin, 5 hr) was 496 pg/mL.
